We go through one substance from patent US20130004053A1, “System and method for automatic color segmentation and minimum significant response for measurement of fractional localized intensity of cellular compartments” (Vala Sciences, Inc., priority 2002, published 2013).

The test system of experiment [1] is NFκB p65 cytoplasm-to-nucleus translocation in HUVEC cells. The experiment is described as follows: TNFα-induced NFκB cytoplasm-nucleus translocation in HUVEC (FLIN). It is filed as cell-based, human. The protocol:
The cells used in these studies were primary human umbilical vein endothelial cells (HUVEC) obtained from Clonetics Corporation. The cells were maintained in culture under standard conditions and passaged using Clonetics' proprietary EGM medium and reagent system. Since they are not transformed, HUVECs, generally become senescent after nine or ten passages.
Prior to assay, cells were transferred to 96-well plates (Packard black ViewPlate) and incubated overnight to yield cell monolayers that were approximately 25% confluent. Plates used to determine a statistically optimal cell density for the assay were made by seeding wells at 5000, 2500, and 1000 cells per well and incubating overnight. […] Translocation of NFκB from the cytoplasm to the nucleus was assessed by visual examination of sample wells with a confocal microscope system. […]
Fractional Localized Intensity Measurements on TNFα-induced NFκB Cytoplasm-Nucleus Translocation: Immunofluorescent staining of the NFκB p65 regulatory subunit allows for easy characterization of the intercellular NFκB distribution by visual inspection of images acquired during scanning. The majority of fluorescence lies outside the nuclear area in unstimulated cells, while a substantial amount co-locates with the nuclear mask subsequent to maximal stimulation with TNFα (FIG. 11). […]

The test system is the same in experiment [2]. The following applies: previous reports [Ding et al.]; cited from earlier work.

tumor necrosis factor α [TNFα]: the “translocation of labeled NFκB, average” value in experiment [1] (200 U/ml TNFα, 15 m, average over cellular densities) turned out to be 18.80%. Besides, the “gross p65 translocated upon maximal stimulation” value in experiment [1] (maximal stimulation) is recorded as “≈ 20%”. For the same substance, the “fraction of p65 to translocate on stimulus, of gross amount in unstimulated cell cytoplasm” value in experiment [2] is listed as 20%.
